“And” between values parts separate entries of the source, which are not always exact repeats. Identical values can stand only once.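 Growth conditions: 96-well plates. Treatment: test compound, 48 hours, 5 concentrations. Analysis: linear interpolation between bracketing concentrations; unreached endpoints set to highest concentration. GI50 = concentration required for 50% inhibition of growth. At the TGI there is no net growth.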 Residues, ends and D or L forms follow the SMILES beside them. *: point of attachment. Cbz = O=C(OCc1ccccc1)*
Assays:
Assay in all cases: NCI anticancer screen, dose series, 48 h
SR leukemia = system: SR leukemia
SF-268 CNS = system: SF-268 CNS
MDA-MB-231 breast = system: MDA-MB-231 breast
HCT-116 colon = system: HCT-116 colon
SK-MEL-2 melanoma = system: SK-MEL-2 melanoma
MALME-3M melanoma = system: MALME-3M melanoma
786-0 renal = system: 786-0 renal
A549 NSCLC = system: A549 NSCLC
UO-31 renal = system: UO-31 renal
EKVX NSCLC = system: EKVX NSCLC

SMILES | GI50 (SR leukemia) [µM] | TGI (SR leukemia) | GI50 (SF-268 CNS) | TGI (SF-268 CNS) | GI50 (MDA-MB-231 breast) [µM] | TGI (MDA-MB-231 breast) [µM] | GI50 (HCT-116 colon) [µM] | TGI (HCT-116 colon) | GI50 (SK-MEL-2 melanoma) [µM] | TGI (SK-MEL-2 melanoma) [µM] | GI50 (MALME-3M melanoma) | TGI (MALME-3M melanoma) | GI50 (786-0 renal) | TGI (786-0 renal) | GI50 (A549 NSCLC) [µM] | TGI (A549 NSCLC) [µM] | GI50 (UO-31 renal) [µM] | TGI (UO-31 renal) [µM] | GI50 (EKVX NSCLC) | TGI (EKVX NSCLC) [µM]
COc1cc(CCNC(=O)OC(C)(C)C)c2c(c1OC)SSSSS2 | 4.48 | 32.8 µM | 1.87 µM | 4.04 µM | 2.58 | 5.82 | 5.51 | > 100 µM | 2.45 | 5.68 | 2.48 µM | 4.94 µM | 2.08 µM | 5.56 µM | 3.36 | 10.2 | 2.18 | 5.47 | 2.69 µM | 5.97
C=CCOC(=O)Nc1cccn([C@H](CC(C)C)C(=O)NCCC(C)C)c1=O | 72.7 | > 100 µM | 84.8 µM | > 100 µM | 21.1 | 67.2 | 49.6 | > 100 µM | > 100 | > 100 | > 100 µM | > 100 µM | > 100 µM | > 100 µM | 78.5 | > 100 | 27.5 | > 100 |  | 
CCNCCNc1cc(-c2ccc(C(F)(F)F)cc2)c(C#N)c2nc3cc(Cl)c(Cl)cc3n12 | 0.185 | 0.439 µM | 1.6 µM | 3.22 µM | 1.51 | 3.1 | 0.177 | 0.338 µM |  |  |  |  | 1.53 µM | 3.02 µM | 1.37 | 2.77 | 1.65 | 3.25 | 1.59 µM | 3.13
CN(C)C=Nc1c(I)cc(I)c(CCC(=O)O)c1I | > 100 | > 100 µM | > 100 µM | > 100 µM | > 100 | > 100 | > 100 | > 100 µM | > 100 | > 100 | > 100 µM | > 100 µM | > 100 µM | > 100 µM | > 100 | > 100 | > 100 | > 100 | > 100 µM | > 100
NC(N)=N/N=C/c1c(-c2cccnc2)nc2sc(Cl)cn12 | 17.1 | > 100 µM | 20.7 µM | 52.7 µM | 7.95 | 21.9 |  |  | 42.8 | > 100 |  |  | 17 µM | 46.6 µM | 18.7 | 40.1 | 33.8 | > 100 | 16.7 µM | 32.9
CN(C)CCS(=O)(=O)Nc1cc(-c2ccc3ncc(C#N)c(Nc4ccc(F)c(Cl)c4)c3c2)cnc1Cl | 0.282 | > 100 µM | 0.122 µM | 0.692 µM | 0.185 | 0.629 | 0.214 | 0.69 µM | 0.173 | 0.532 | 0.0788 µM | 0.469 µM | 0.307 µM | 3.61 µM | 1.14 | 4.79 | 0.188 | 1.29 | 0.23 µM | 1.47
CCCN(CCC)c1ccc(C=O)c(C)c1 | 40.3 | > 100 µM | 68 µM | > 100 µM | 41.3 | > 100 | 35 | > 100 µM | 30.9 | > 100 | 43.8 µM | > 100 µM | 43.9 µM | > 100 µM | 70.7 | > 100 | 21.5 | > 100 | 24.2 µM | > 100
O=C1c2c(Cl)c(Cl)c(Cl)c(Cl)c2C(=O)C2(Cl)CC=CCC12Cl (stereo not given) | 1.15 | 4.38 µM | 1.76 µM | 3.2 µM | 1.71 | 3.13 | 1.76 | 3.32 µM | 2.48 | 4.89 | 2.03 µM | 4.16 µM | 2 µM | 3.62 µM | 4.28 | 16.3 | 1.71 | 3.28 | 2.64 µM | 7.81
OCC1CCCC1O (stereo not given) |  | > 100 µM |  | > 100 µM |  | > 100 |  | > 100 µM |  | > 100 |  | > 100 µM |  | > 100 µM |  | > 100 |  | > 100 |  | 
CCCCCCCCCCCCCCCCN(CC)CC | 1.99 | 4.51 µM | 2.64 µM | 8.31 µM | 1.75 | 3.21 | 1.77 | 3.22 µM | 3.01 | 8.9 | 1.92 µM | 4.35 µM | 1.69 µM | 3.1 µM |  |  | 1.6 | 3.47 | 2.02 µM | 4.76
COc1ccc(NC(=O)c2ccc(NC3=C(Cl)C(=O)N(Cc4ccccc4)C3=O)cc2)c(OC)c1 | 1.39 | 3.98 µM | 29.1 µM | > 100 µM | > 100 | > 100 | 5.4 | 25.6 µM | 25.7 | 68.9 |  |  | 23.3 µM | > 100 µM | 45.4 | > 100 | 40.5 | > 100 | 64.9 µM | > 100
O=C1NC(=NCCc2ccccn2)S/C1=C\c1ccc2ncccc2c1 | 4.21 | 14 µM | 11.4 µM | > 25 µM | 18.5 | > 25 | 8.25 | > 25 µM | 9.02 | > 22.2 | 18.1 µM | > 25 µM | 16.8 µM | > 25 µM | 8.29 | > 25 | 7.91 | 24.3 |  | 
COc1ccc2nc3cccc([N+](=O)[O-])c3c(NC(C)CN(C)C)c2c1 (stereo not given) | 2.16 |  | 2.64 µM | 11.9 µM | 2.23 | 10.6 | 1.44 | 7.49 µM |  |  |  |  | 2.22 µM | 7.12 µM | 3.48 | 8.93 | 1.7 | 3.62 | 6.96 µM | 34.4
N#CC1=C(N)Oc2c(sc3c(Br)cccc23)C1c1ccc(Cl)cc1 (stereo not given) | 0.342 | 2.69 µM | 0.917 µM | 7.62 µM | 1.32 | 4.69 | 0.429 | 1.79 µM | 0.672 | 12.3 |  |  | 0.663 µM | 2.71 µM | 1.16 | 3.52 | 0.614 | 2.54 | 2.23 µM | 17.4
O=[N+]([O-])c1ccc2c(c1)C(c1ccccc1Cl)=Nc1c(n[nH]c1-c1cccnc1)N2 | > 25 | > 25 µM | > 25 µM | > 25 µM | > 25 | > 25 | > 25 | > 25 µM | > 25 | > 25 | > 25 µM | > 25 µM | > 25 µM | > 25 µM | > 25 | > 25 | > 25 | > 25 |  | 
O=C1CC(CC(OCc2ccccc2)C(OCc2ccccc2)C(COCc2ccccc2)OCc2ccccc2)CC(=O)N1 (stereo not given) |  | > 100 µM and 65.4 µM | > 100 µM and 11.2 µM | > 100 µM and 65.3 µM |  | 23.7 |  | > 100 µM and 34.2 µM |  |  | > 100 µM and 15.5 µM | > 100 µM and 32.4 µM | > 100 µM and 11 µM | > 100 µM and 49.3 µM |  | > 100 |  |  | > 100 µM and 12.5 µM | > 100
Cn1c(-c2c(N)n(Cc3ccc(F)cc3)c3nc(C#N)c(C#N)nc23)nc2ccccc21 | 1.01 | > 50 µM | 5.47 µM | > 50 µM | 5.17 | 38.5 |  |  | 3.62 | 34.9 |  |  | 0.918 µM | 3.59 µM | 5.48 | > 50 | 2.51 | > 50 | 4.16 µM | > 50
Cn1c(=O)c(Oc2ccc(F)cc2F)cc2cnc(NC3CCOCC3)nc21 | > 25 | > 25 µM | > 25 µM | > 25 µM | > 25 | > 25 | > 25 | > 25 µM | > 25 | > 25 | > 25 µM | > 25 µM | > 25 µM | > 25 µM | > 25 | > 25 | 8.06 | > 19.3 |  | 
Cc1c2c(nn1-c1ccc(S(=O)(=O)NC(=S)NC(=O)c3ccccc3)cc1)-c1ccccc1CC2 | 0.759 | > 100 µM | 29.3 µM | > 100 µM | 42.5 | > 100 |  |  | > 100 | > 100 |  |  | > 100 µM | > 100 µM | 54.1 | > 100 | > 100 | > 100 |  | 
CN(C)CCNC(=O)c1ccc2oc3cc4ccccc4c(=O)n3c2c1 | 32.9 | > 100 µM | 32.6 µM | 93.2 µM | 31.8 | > 100 | 41.6 | > 100 µM | 21.4 | 63.5 |  |  | 71.6 µM | > 100 µM | 26.2 | 97 | 19.6 | 47.5 | 27.5 µM | > 100
CC(C)C[C@@H](C=O)NC(=O)[C@H](CC(C)C)NC(=O)[C@H](CC(C)C)NC(=O)OCc1ccccc1 (Cbz-Leu-Leu-Leu-aldehyde) | 0.366 | 86.6 µM | 0.297 µM | 1.45 µM | 0.328 | 1.21 | 0.294 | 1.04 µM | 0.483 | 3.28 |  |  | 0.349 µM | 1.4 µM | 0.578 | 12.8 | 0.252 | 0.943 | 0.682 µM | > 100
N#Cc1c(N/N=C\c2ccc(Cl)cc2)nc(N)nc1N1CCOCC1 | 11.7 | 28.9 µM | > 100 µM | > 100 µM | 25.3 | > 100 | 29.7 | > 100 µM | 99.2 | > 100 |  |  | 67.1 µM | > 100 µM | 29.6 | > 100 | 39.6 | > 100 | 93.9 µM | > 100
COc1ccc(OC)c(/C=C/c2ccnc3ccccc23)c1 |  | 8.07 µM |  | 18.2 µM |  | 9.44 |  | 8.09 µM |  |  |  | 21.5 µM |  | 15.4 µM |  | 14.7 |  | 6.99 |  | 10.7
COc1cc(/C=C/C(=O)c2c(-c3ccc(F)cc3)nc3sc(C)nn23)cc(OC)c1OC | 1.77 | 5.27 µM | 2.74 µM | 8.96 µM | 1.99 | 8.51 | 1.64 | 3.07 µM |  |  | 4.26 µM | 16.9 µM | 3.31 µM | 10.6 µM | 2.53 | 8.63 | 1.95 | 4.94 |  | 
O=S(=O)(NCCCNc1cc(-c2cn(-c3ccccc3)nc2-c2cccc(O)c2)ccn1)c1ccc(Br)cc1 | 1.51 | 5.49 µM | 1.45 µM | 4.98 µM | 1.6 | 4.25 | 1.71 | 4.22 µM | 1.95 | 3.84 |  |  | 1.5 µM | 4.29 µM | 2.6 | 12.6 | 2.17 | 8.95 | 2.29 µM | 66.4
Oc1ccccc1/C=N\NC(=S)N/N=C/c1ccccc1O | 1.67 | > 100 µM | 1.08 µM | 44.1 µM | 3.05 | > 100 | 1.37 | > 100 µM | 13.4 | 55.9 |  |  | 3.49 µM | 20 µM | 3.5 | > 100 | 0.489 | 4.91 | 2.57 µM | 24.3
COc1cc(C2CC(=O)Nc3c2c(C)nn3-c2nc3ccccc3[nH]2)cc(OC)c1O (stereo not given) | 3.35 | 14.5 µM | 3.83 µM | 45 µM | 2.98 | 8.15 | 3.45 | > 100 µM | 2.23 | 4.52 | 1.75 µM | 3.74 µM | 3.01 µM | 9.39 µM | 3.45 | > 40.2 | 2.49 | 7.7 |  | 
COc1ccc(-c2[nH]nc(N)c2-c2cc(OC)c(OC)c(OC)c2)cc1 | 0.0285 | > 42 µM | 0.0756 µM | 33.3 µM | 0.074 | > 100 | 0.0417 | 42.6 µM | 0.0379 | > 100 | 0.0337 µM | > 100 µM | 0.0663 µM | > 58.3 µM | 0.0447 | > 100 | 0.0644 | 66.7 |  | 

From PubChem BioAssay (NCI)
